Source: patent US11708366B2, “Heteroaryl substituted spiropiperidinyl derivatives and pharmaceutical uses thereof” (Novartis AG, priority 2020, dated 2023)
Like-named read-outs stand apart in the source and are kept apart here.

Target: LTC4S (Homo sapiens (Human), UniProt Q16873)
Experiment: Human whole blood HTRF assay (LTC4 release after calcium ionophore A23187)
Assay type: cell-based
Details: calcium ionophore A23187 stimulation, LTC4 by HTRF
Protocol: B. Human Whole Blood HTRF Assay
LTC4 synthase catalyzes the conversion of Leukotriene A4 (LTA4) to Leukotriene C4 (LTC4) in the presence of reduced glutathione (GSH) as a co-substrate. For testing the inhibition of LTC4S, compounds are prepared for either eight-point or sixteen-point dose response studies in 384-well Labcyte low dead volume (LDV) plates. For eight-point dose response studies, compounds are diluted 1:5 starting at 1 μM concentration in 90% DMSO. […] Compounds are studied in duplicates. Ten wells are filled with 90% DMSO which correspond to the stimulated and unstimulated control wells. […] The morning of the assay, whole blood is collected from three human donors. Donors must be non-smokers and must not have taken NSAIDs within the 48 hours prior to blood collection. The amount of blood collected per donor depends on the amount of compounds to be tested and the dose response format in which they are to be studied (about 8 mL of whole blood for either 22 compounds in 8-point dose response format or 11 compounds in 16-point dose response format). […] 50 μL of diluted blood are then dispensed into each assay plate well with pre-dispensed compounds and DMSO for the stimulated and unstimulated controls using a Thermo Scientific™ Multidrop™ Combi reagent dispenser, and incubated at 37° C. for 4 hours. Calcium ionophore A23187 is used to induce a rapid increase in intracellular levels of Ca^2+. The Ca^2+ functions as a universal second messenger in various immune cells, such as T cells, B cells and mast cells, and is used to induce degranulation and release of eicosanoids, including LTC4, by cells contained in the whole blood samples. […] All but the unstimulated control wells are subsequently stimulated by dispensing 1 μL of the 0.5 mg/mL calcium ionophore suspension using the Thermo Scientific™ Multidrop™ Combi reagent dispenser. Plates are incubated for 15 minutes at 37° C. Plates are then centrifuged at 300 g for 10 minutes at room temperature to pellet blood cells and stop the reaction. […] Plates are sealed and stored at −80° C.
In order to measure the amount of LTC4 released by cells in the human blood samples during calcium ionophore stimulation, supernatants are analyzed using the Cisbio LTC4 homogeneous time-resolved FRET (HTRF) kit (Cisbio #64LC4PEH). […] Ten serially diluted standard curve solutions are also dispensed in duplicate into each plate as instructed in the protocol. Blank controls and cryptate control wells are also prepared. Then, 5 μL of anti-LTC4-d2 working solution are dispensed into all the wells, but the cryptate control wells. Subsequently, 5 μL of anti-LTC4-Eu3+ cryptate working solution are dispensed into all the wells. Plates are then covered with a lid and incubated at room temperature for one hour with gentle orbital shaking (˜450 rpm). […] HTRF ratios are calculated for each well by dividing the 665 nm intensity by the 620 nm intensity, and multiplying the resulting ratio by 10,000. LTC4 standard curves are interpolated for each plate and used to convert the HTRF ratio readouts into the amount of LTC4 present in each well (in ng/mL). Parametric curve fitting is used to obtain inhibition curves and IC50 values.

[1] = human whole blood diluted 1:3, 4 h incubation, read-out: human whole blood HTRF IC50
[2] = human whole blood HTRF IC50, human whole blood diluted 1:3, 4 h incubation

| SMILES | IC50 [1] [nM] | IC50 [2] [nM] |
| --- | --- | --- |
| CCOC(=O)c1nc(O[C@@H]2COC[C@H]2F)cc(N2CCC3(CCCC(=O)N3c3ccc(F)c(F)c3)CC2)n1 (racemic) [Example 111, rac ethyl 4-(1-(3,4-difluorophenyl)-2-oxo-1,9-diazaspiro[5.5]undecane-9-yl)-6-(((3S,4S)-4-fluorotetrahydrofuran-3-yl)oxy)pyrimidine-2-carboxylate] | 17 | – |
| O=C1CCCC2(CCN(c3cc(O[C@H]4CCOC4)nc(Cl)n3)CC2)N1c1ccc(F)c(F)c1 [Example 71, (S)-9-(2-chloro-6-((tetrahydrofuran-3-yl)oxy)pyrimidin-4-yl)-1-(3,4-difluorophenyl)-1,9-diazaspiro[5.5]undecan-2-one] | 580 | – |
| O=C1CCCC2(CCN(c3cc(Oc4cccc(Cl)c4)cc[n+]3[O-])CC2)N1c1ccc(F)c(F)c1 [Example 34, 4-(3-chlorophenoxy)-2-(1-(3,4-difluorophenyl)-2-oxo-1,9-diazaspiro[5.5]undecan-9-yl)pyridine 1-oxide] | 2 | – |
| O=C1CCCC2(CCN(c3cc(-n4cccn4)nc(N4CCOCC4)n3)CC2)N1c1ccc(F)c(F)c1 [Example 52, 1-(3,4-difluorophenyl)-9-(2-morpholino-6-(1H-pyrazol-1-yl)pyrimidin-4-yl)-1,9-diazaspiro[5.5]undecan-2-one] | 29 | – |
| Nc1nc(N2CCC3(CC2)CC(F)CC(=O)N3c2ccc(F)c(F)c2)cc(C(F)(F)C(F)(F)F)n1 (racemic) [Example 117, rac-9-(2-amino-6-(perfluoroethyl)pyrimidin-4-yl)-1-(3,4-difluorophenyl)-4-fluoro-1,9-diazaspiro[5.5]undecan-2-one] | 18 | – |
| O=C1CCCC2(CCN(c3cc(OC4CCOCC4)nc(CO)n3)CC2)N1c1ccc(F)c(F)c1 [Example 106, 1-(3,4-difluorophenyl)-9-(2-(hydroxymethyl)-6-((tetrahydro-2H-pyran-4-yl)oxy)pyrimidin-4-yl)-1,9-diazaspiro[5.5]undecan-2-one] | 69 | – |
| O=C1CCCC2(CCN(c3cc(O[C@@H]4CCOC4)nc(Cl)n3)CC2)N1c1ccc(F)c(F)c1 [Example 70, (R)-9-(2-chloro-6-((tetrahydrofuran-3-yl)oxy)pyrimidin-4-yl)-1-(3,4-difluorophenyl)-1,9-diazaspiro[5.5]undecan-2-one] | 110 | – |
| O=C1CCCC2(CCN(c3cc(O[C@@H]4CCOC[C@@H]4F)nc(CO)n3)CC2)N1c1ccc(F)c(F)c1 (racemic) [Example 107, rac-1-(3,4-difluorophenyl)-9-(6-(((3S,4R)-3-fluorotetrahydro-2H-pyran-4-yl)oxy)-2-(hydroxymethyl)pyrimidin-4-yl)-1,9-diazaspiro[5.5]undecan-2-one] | 6 | – |
| O=C1CCCC2(CCN(c3cc(N4CC5(CCC5)C4)nn(Cc4ccccc4)c3=O)CC2)N1c1ccc(F)c(F)c1 [Example 10, 9-(2-benzyl-3-oxo-6-(2-azaspiro[3.3]heptan-2-yl)-2,3-dihydropyridazin-4-yl)-1-(3,4-difluorophenyl)-1,9-diazaspiro[5.5]undecan-2-one] | 5 | – |
| Cn1nc(-n2cc(C(F)(F)F)cn2)cc(N2CCC3(CCCC(=O)N3c3ccc(F)c(F)c3)CC2)c1=O [Example 14, 1-(3,4-difluorophenyl)-9-(2-methyl-3-oxo-6-(4-(trifluoromethyl)-1H-pyrazol-1-yl)-2,3-dihydropyridazin-4-yl)-1,9-diazaspiro[5.5]undecane-2-one] | – | 1 |
| Nc1nc(OC2CC(F)(F)C2)cc(N2CCC3(CCCC(=O)N3c3ccc(F)c(F)c3)CC2)n1 [Example 90, 9-(2-amino-6-(3,3-difluorocyclobutoxy)pyrimidin-4-yl)-1-(3,4-difluorophenyl)-1,9-diazaspiro[5.5]undecan-2-one] | 4 | – |
| CC(F)(F)c1cc(N2CCC3(CCCC(=O)N3c3ccc(F)c(F)c3)CC2)nc(N)n1 [Example 120, 9-(2-amino-6-(1,1-difluoroethyl)pyrimidin-4-yl)-1-(3,4-difluorophenyl)-1,9-diazaspiro[5.5]undecan-2-one] | 32 | – |
| [2H]C([2H])(Oc1cc(N2CCC3(CCCC(=O)N3c3ccc(F)c(F)c3)CC2)nc(N)n1)C(F)(F)F [Example 92, 9-(2-amino-6-(2,2,2-trifluoroethoxy-1,1-d2)pyrimidin-4-yl)-1-(3,4-difluorophenyl)-1,9-diazaspiro[5.5]undecan-2-one] | 5 | – |
| O=C1CCCC2(CCN(c3cc(-c4ncco4)ncn3)CC2)N1c1ccc(F)c(F)c1 [Example 62, 1-(3,4-difluorophenyl)-9-(6-(oxazol-2-yl)pyrimidin-4-yl)-1,9-diazaspiro[5.5]undecan-2-one] | 410 | – |
| Nc1nc(O[C@@H]2CCCOC2)cc(N2CCC3(CCCC(=O)N3c3ccc(F)c(F)c3)CC2)n1 [Example 100, (R)-9-(2-amino-6-((tetrahydro-2H-pyran-3-yl)oxy)pyrimidin-4-yl)-1-(3,4-difluorophenyl)-1,9-diazaspiro[5.5]undecan-2-one] | 2 | – |
| CC(C)Oc1cc(N2CCC3(CCCC(=O)N3c3ccc(F)c(F)c3)CC2)nc(N)n1 [Example 93, 9-(2-amino-6-isopropoxypyrirnidin-4-yl)-1-(3,4-difluorophenyl)-1,9-diazaspiro[5.5]undecan-2-one] | 10 | – |
| C[C@@H](Oc1cc(N2CCC3(CCCC(=O)N3c3ccc(F)c(F)c3)CC2)nc(CO)n1)C(F)(F)F (single isomer, unassigned) [Example 110b, (R)-1-(3,4-difluorophenyl)-9-(2-(hydroxymethyl)-6-((1,1,1-trifluoropropan-2-yl)oxy)pyrimidin-4-yl)-1,9-diazaspiro[5.5]undecan-2-one or (S)-1-(3,4-difluorophenyl)-9-(2-(hydroxymethyl)-6-((1,1,1-trifluoropropan-2-yl)oxy)pyrimidin-4-yl)-1,9-diazaspiro[5.5]undecan-2-one] | 5 | – |
| Nc1nc(N2CCC3(CCCC(=O)N3c3ccc(F)c(F)c3)CC2)cc(-n2cc(C(F)(F)F)cn2)n1 [Example 64, 9-(2-amino-6-(4-(trifluoromethyl)-1H-pyrazol-1-yl)pyrimidin-4-yl)-1-(3,4-difluorophenyl)-1,9-diazaspiro[5.5]undecane-2-one] | 2 | – |
| Nc1nc(O[C@H]2CCOC[C@@H]2F)cc(N2CCC3(CCCC(=O)N3c3ccc(F)c(F)c3)CC2)n1 (racemic) [Example 99, rac-9-(2-amino-6-(((3S,4S)-3-fluorotetrahydro-2H-pyran-4-yl)oxy)pyrimidin-4-yl)-1-(3,4-difluorophenyl)-1,9-diazaspiro[5.5]undecan-2-one] | 4 | – |
| Nc1nc(N2CCC3(CCCC(=O)N3c3ccc(F)c(F)c3)CC2)cc(C(F)(F)F)n1 [Example 76, 9-(2-amino-6-(trifluoromethyl)pyrimidin-4-yl)-1-(3,4-difluorophenyl)-1,9-diazaspiro[5.5]undecan-2-one] | 57 | – |
| O=C1CCCC2(CCN(c3cc(OC4COC4)nc(C(F)(F)F)n3)CC2)N1c1ccc(F)c(F)c1 [Example 61, 1-(3,4-difluorophenyl)-9-(6-(oxetan-3-yloxy)-2-(trifluoromethyl)pyrimidin-4-yl)-1,9-diazaspiro[5.5]undecan-2-one] | 29 | – |
| O=C1CCCC2(CCN(c3cc(OC4CCOCC4)ncn3)CC2)N1c1ccc(F)c(F)c1 [Example 87, 1-(3,4-difluorophenyl)-9-(6-((tetrahydro-2H-pyran-4-yl)oxy)pyrimidin-4-yl)-1,9-diazaspiro[5.5]undecan-2-one] | 7 | – |
| COc1nc(N2CCC3(CCCC(=O)N3c3ccc(F)c(F)c3)CC2)cc(-n2cccn2)n1 [Example 50, 1-(3,4-difluorophenyl)-9-(2-methoxy-6-(1H-pyrazol-1-yl)pyrimidin-4-yl)-1,9-diazaspiro[5.5]undecan-2-one] | 45 | – |
| O=C1CCCC2(CCN(c3cc(OC4CCOCC4)nn(Cc4ccccc4)c3=O)CC2)N1c1ccc(F)c(F)c1 [Example 15a, 9-(2-benzyl-3-oxo-6-((tetrahydro-2H-pyran-4-yl)oxy)-2,3-dihydropyridazin-4-yl)-1-(3,4-difluorophenyl)-1,9-diazaspiro[5.5]undecan-2-one] | – | 1 |
